The source of these data is patent US20140187507A1, “TREATMENT OF PARKINSONS DISEASE WITH GLYCOLIPIDS” (Rutgers, The State University of New Jersey, priority 2012, published 2014).

Entries after “also recorded” stand apart in the source; their conditions may differ.

The subject of data set [1] is GM1 deficient mice (HT, KO). Description: Motor function in GM1 deficient mice (grip duration, irritant removal, pole climbing). The class given is in vivo, mouse. To be noted: HT mice 200 DOA. The protocol:
FIG. 4. […] Grip duration (a) and irritant removal (b) were tested in mice at 200 DOA before and after IP injection of L-DOPA.
FIG. 5. […] Mice (200 DOA) were treated IP with saline or compound XVIII (2.5 mg/Kg; 3×/wk) over 5 weeks. (a) grip duration; (b) irritant removal; (c) pole climbing.
HT mice (200 DOA) were treated with saline or analog XVIII (2.5 mg/Kg; 3×/wk; IP) over 5 weeks.

Data set [2] concerns NG108-15 neuroblastoma cells. Description: Cell death and neurite outgrowth in MPP-treated differentiated neuroblastoma cells. It is filed as cell-based. The text has this: FIG. 12. GM1 replacement therapy reduces cell death and increases neurite outgrowth. NG108-15 neuroblastoma cells were differentiated for 7 days with db-cAMP/KCl, then treated 2 days with MPP and indicated compound for 2 days. […] LIGA-20 is GM1 analog XVIII and compound 6 is analog XXXVII/XXXVIII.

Another data set relates to HT GM1 deficient mice. The experiment in a line: Cognitive function in GM1 deficient mice, T-maze test. The class given is in vivo, mouse. The settings on record: 4 wks dosing, 4 mice/group, saline control. The method, then: FIG. 6. […] T-maze test: 4 wks dosing with GM1 analog XVIII; 4 mice/group; age as indicated. The rate of alternation is a statistical plot as 0.5 (pure chance) to 1.0 (perfect score). Saline was administered as control.
HT and KO mice in two age groups were evaluated for cognitive function with the T maze test (FIG. 6).

The subject of data set [3] is NG-CR72 cells lacking GM1. The experiment in a line: Spontaneous alpha-synuclein aggregation in differentiated cells deficient in GM1. The class given is cell-based. The settings on record: 1 μM; cells differentiated with db-cAMP/KCl. The text has this: FIG. 9. Spontaneous formation of alpha-synuclein aggregates in cells deficient in GM1.
Data set [4] has as its system GM1 deficient mice (HT, KO). The experiment in a line: Rescue of striatal dopamine levels and dopaminergic cells in the GM1 deficient mouse (IHC of SNpc). The class given is in vivo. To be noted: HT mice 200 days old, 2.5 mg/Kg, 3x/wk, ip, 5 weeks, vs saline. The method, then:
FIG. 3. Reversal of PD neuropathology by GM1 replacement. HT mice (200 days old) were treated with saline or compound XVIII (2.5 mg/Kg; 3×/wk, ip) over 5 weeks.
Heterozygote mice (200 days old, DOA) were treated with saline or analog XVIII (2.5 mg/Kg; 3×/wk, IP) over 5 weeks.

The test system of data set [5] is RET phosphorylation (RET-p). The experiment in a line: RET phosphorylation in GM1 deficient mice, IHC with anti-RET-P and anti-TH. It is filed as in vivo, mouse. The source says: FIG. 8. GM1 replacement restores normal RET phosphorylation (RET-p) from subnormal state in GM1 deficient mice.
The next data set concerns rat cortical cells. Description: Protection of cortical cells from apoptosis (hydrogen peroxide, MTT assay). The class given is cell-based. The settings on record: 50 μM hydrogen peroxide, FIG. 11. The method, then: To induce apoptosis, rat cortical cells were cultured and treated with 50 μM hydrogen peroxide for three hours prior to being treated with the ganglioside analogue. The cells were also treated with the hydrogen peroxide during treatment with the ganglioside analogue and post-treatment for 48 h. Cell death was assayed using the MTT assay.

Data set [6] has as its system Parkinson's disease patients. To be noted: peripheral subcutaneous administration for 5 years; cited from earlier work.
For data set [7] the following is noted: peripheral subcutaneous administration; cited from earlier work.
Another data set deals with MPTP-treated mice. Description: Rescue of striatal dopamine levels and dopaminergic cells in MPTP-treated mice. It is filed as in vivo, C57B1/6 mice. To be noted: once daily for 3 weeks after MPTP; GM1 30 mg/kg IP; analogs 2, 3, 4, 6, LIGA20 at 0.3 or 30 mg/Kg IP or 30 mg/Kg PO (FIG. 10). The protocol:
FIG. 10. GM1 analogs increase dopamine and TH+ cell numbers in the SNpc of MPTP treated mice. All agents administered once daily (I.P. or P.O.) for 3 weeks following MPTP treatment. (a) GM1 (1; 30 mg/Kg; IP), analog (3, 4 and 6; 0.3 mg/Kg; IP). (b) LIGA20 (2; 30 mg/Kg), analogs (2, 3 and 6; 30 mg/Kg; IP). (c) analogs (4 and 6; 30 mg/Kg; PO). (d) TH+IHC of the SNpc after treatment with saline or analog (6) (30 mg/Kg; PO) C=saline control. I and II are two separate experiments. Compound 2 is (XXIX/XXX), compound 3 is (XXVII/XXVIII), compound 4 is (XXXI/XXXII), compound 6 is (XXXVIII/XXXVII). LIGA20 is (XVIII).
C57B1/6 mice 7-8 weeks of age were treated with MPTP (b.i.d., 20 mg/kg, s.c.). The mice also receive a daily administration of saline, GM1 (30 mg/kg), or a compound of the invention (0.3 to 3 mg/kg, i.p. and 30 mg/kg os) for three weeks starting 24 h after the last MPTP injection. The brains were removed and analyzed for striatal dopamine levels. The midbrain were fixed for TH immunohistochemistry and dopamine neuron cell counts.

The mark [8] stands for this setting: 1 μM, differentiated 7 days with db-cAMP/KCl, MPP and compound 2 days.

Turning to `N[C@@H](Cc1ccc(O)c(O)c1)C(=O)O` [L-DOPA, reference compound], in data set [1] (before and after IP injection of L-DOPA), the “motor deficits (grip duration, irritant removal)” value is reported as “alleviates motor deficits”.

With `CCCCCCCCCCCCC/C=C/[C@@H](O)[C@H](CO[C@@H]1OC(CO)[C@@H](O[C@@H]2OC(CO)[C@H](O[C@@H]3OC(CO)[C@H](O)[C@H](O[C@@H]4OC(CO)[C@H](O)[C@H](O)C4O)C3NC(C)=O)[C@H](O[C@]3(C(=O)O)C[C@@H](O)[C@@H](NC(C)=O)C([C@H](O)[C@H](O)CO)O3)C2O)[C@H](O)C1O)NC(=O)C(Cl)Cl` (some centres unmarked) [compound XVIII], the “motor function (grip duration, irritant removal, pole climbing tests)” value in data set [1] (2.5 mg/Kg, 3x/wk, IP, 5 weeks, vs saline, 2.5 mg/kg) was “significantly improved motor function; also recorded: improves motor function”. Further, in data set [2] (setting [8]), the “% of cells with neurites” value is given as “similarly improved” and the relative cell number result is reported as “significantly improved”. Besides, the “cognitive function, T-maze rate of alternation” value in the data set on HT GM1 deficient mice was “improves cognitive function”. In [3], the “αSyn-aggregation (FITC-anti-αSyn antibody staining)” value is “suppressed”. In [4], the “TH+ dopaminergic neuron number in SNpc” value is “increase in TH+ dopaminergic cells; also recorded: neuron number increase”, the “striatal dopamine (DA) levels” value is given as “elevation of striatal dopamine; also recorded: DA levels increase” and the “αSyn aggregates in TH+ cells of SNpc” value is “reduction of αSynuclein; also recorded: αSyn aggregates decrease”. Also, the “RET phosphorylation (RET-p)” value in [5] (HT mice (low GM1)) was “significantly elevated”. The “RET phosphorylation (RET-p)” value in [5] (KO mice (no GM1)) is reported as “significantly elevated”.

With GM1, the “% of cells with neurites” value in data set [2] (GM1 at 100 μM) is “similarly improved”. For the same molecule, the relative cell number result in data set [2] (GM1 at 100 μM, compared with LIGA-20 and compound 6 at 1 μM) is listed as “equivalent”. Besides, the “protection of cells from apoptosis” value in the data set on rat cortical cells is reported as “provided protection of the cells from apoptosis”. Moreover, the “progression of motor function loss” value in data set [6] was “slowed the progression of motor function loss”. Also, in [7], the “share of the administered dose able to penetrate the brain” value is reported as “less than 1%”. Also, in the data set on MPTP-treated mice, the striatal dopamine levels result is recorded as “increased striatal dopamine levels”.
